Measured values published in PMC11684029, “Discovery of VU6024578/BI02982816: An mGlu1 Positive Allosteric Modulator with Efficacy in Preclinical Antipsychotic and Cognition Models” (Journal of Medicinal Chemistry, 2024).

Legend:
1A2 = molecular target: T1, 1A2 (Homo sapiens, UniProt P05177); experiment: inhibition of cytochrome P450 enzymes; type: in vitro ADME; details: human liver microsomes; read-out: CYP450 1A2 inhibition
T1 construct: 0.1 mg/mL human liver microsomes (HLM) and Substrate Mix; from tissue; host or cells: human liver microsomes
T1 sequence (P05177 whole entry): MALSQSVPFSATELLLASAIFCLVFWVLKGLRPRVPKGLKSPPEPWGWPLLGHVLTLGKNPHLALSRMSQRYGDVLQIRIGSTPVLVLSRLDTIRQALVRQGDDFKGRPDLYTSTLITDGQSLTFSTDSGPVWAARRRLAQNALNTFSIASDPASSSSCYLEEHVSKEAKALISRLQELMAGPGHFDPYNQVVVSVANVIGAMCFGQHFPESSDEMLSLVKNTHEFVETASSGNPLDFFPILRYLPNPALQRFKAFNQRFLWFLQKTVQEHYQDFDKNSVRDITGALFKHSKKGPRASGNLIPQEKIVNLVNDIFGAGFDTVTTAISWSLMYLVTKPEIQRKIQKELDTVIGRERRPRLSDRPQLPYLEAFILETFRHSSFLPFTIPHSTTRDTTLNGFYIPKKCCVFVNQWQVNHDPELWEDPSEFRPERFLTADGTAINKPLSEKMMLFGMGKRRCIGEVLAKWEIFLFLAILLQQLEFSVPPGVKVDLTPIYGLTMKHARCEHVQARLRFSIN
Procedure: (§1) A cocktail of substrates for cytochrome P450 enzymes (1A2: Phenacetin, 10 μM; 2C9: Diclofenac, 5 μM; 2D6: Dextromethorphan, 5 μM; 3A4: Midazolam, 2 μM) were mixed for cocktail analysis. For P450 2C19, the substrate stock (Mephenytoin, 40 μM)and substrate mix were prepared separately for discrete analysis. The positive control for pan-P450 inhibition (miconazole) was included alongside each test compound in analysis.
(§2) A reaction mixture of 100 mM Kpi, pH 7.4, 0.1 mg/mL human liver microsomes (HLM) and Substrate Mix is prepared and aliquoted into a 96-deepwell block. Test compound and positive control (in duplicate) were then added such that the final concentration of test compound ranged from 0.1–30 μM. The plate was vortexed briefly and then preincubated at 37 °C while shaking for 15 min. The reaction was initiated with the addition of NADPH (1 mM final concentration). The incubation continued for 8 min and the reaction quenched by 2x volume of cold acetonitrile containing internal standard (50 nM carbamazepine). The plate was centrifuged for 10 min (4000 rcf, 4 °C) and the resulting supernatant diluted 1:1 with water for LC/MS/MS analysis. A 12 point standard curve of substrate metabolites over the range of 0.98 nM to 2000 nM.
(§3) Samples were analyzed via electrospray ionization (ESI) on an AB Sciex API-4000 (Foster City, CA) triple-quadrupole instrument that was coupled with Shimadzu LC-10AD pumps (Columbia, MD) and a Leap Technologies CTC PAL autosampler (Carrboro, NC). Analytes were separated by gradient elution using a Fortis C18 3.0 × 50 mm, 3 μm column (Fortis Technologies Ltd., Cheshire, UK) thermostated at 40 °C. […]
(§4) The IC50 values for each compound were obtained for the individual CYP enzymes by quantitating the inhibition of metabolite formation for each probe substrate. A 0 μM compound condition (or control) was set to 100% enzymatic activity and the effect of increasing test compound concentrations on enzymatic activity could then be calculated from the % of control activity. […]

2C9 = molecular target: T2, 2C9 (Homo sapiens, UniProt P11712); experiment: inhibition of cytochrome P450 enzymes; type: in vitro ADME; details: human liver microsomes; read-out: CYP450 2C9 inhibition
T2 construct: 0.1 mg/mL human liver microsomes (HLM) and Substrate Mix; from tissue; host or cells: human liver microsomes
T2 sequence (P11712 whole entry): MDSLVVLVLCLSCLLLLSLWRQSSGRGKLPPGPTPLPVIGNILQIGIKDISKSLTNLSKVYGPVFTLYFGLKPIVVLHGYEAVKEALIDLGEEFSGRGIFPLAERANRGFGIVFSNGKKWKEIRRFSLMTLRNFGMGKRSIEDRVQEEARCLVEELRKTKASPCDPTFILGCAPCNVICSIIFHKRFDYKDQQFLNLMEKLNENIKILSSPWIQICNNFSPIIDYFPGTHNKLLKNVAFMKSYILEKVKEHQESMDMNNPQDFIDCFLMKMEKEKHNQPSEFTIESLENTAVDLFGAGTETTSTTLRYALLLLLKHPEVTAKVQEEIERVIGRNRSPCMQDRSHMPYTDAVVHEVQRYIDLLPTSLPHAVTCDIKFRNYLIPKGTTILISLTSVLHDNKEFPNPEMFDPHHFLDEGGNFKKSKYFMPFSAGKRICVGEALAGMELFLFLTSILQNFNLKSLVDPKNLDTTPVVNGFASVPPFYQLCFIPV
Procedure: as §1, §2, §3, §4

2D6 = molecular target: T3, 2D6 (Homo sapiens, UniProt P10635); experiment: inhibition of cytochrome P450 enzymes; type: in vitro ADME; details: human liver microsomes; read-out: CYP450 2D6 inhibition
T3 construct: 0.1 mg/mL human liver microsomes (HLM) and Substrate Mix; from tissue; host or cells: human liver microsomes
T3 sequence (P10635 whole entry): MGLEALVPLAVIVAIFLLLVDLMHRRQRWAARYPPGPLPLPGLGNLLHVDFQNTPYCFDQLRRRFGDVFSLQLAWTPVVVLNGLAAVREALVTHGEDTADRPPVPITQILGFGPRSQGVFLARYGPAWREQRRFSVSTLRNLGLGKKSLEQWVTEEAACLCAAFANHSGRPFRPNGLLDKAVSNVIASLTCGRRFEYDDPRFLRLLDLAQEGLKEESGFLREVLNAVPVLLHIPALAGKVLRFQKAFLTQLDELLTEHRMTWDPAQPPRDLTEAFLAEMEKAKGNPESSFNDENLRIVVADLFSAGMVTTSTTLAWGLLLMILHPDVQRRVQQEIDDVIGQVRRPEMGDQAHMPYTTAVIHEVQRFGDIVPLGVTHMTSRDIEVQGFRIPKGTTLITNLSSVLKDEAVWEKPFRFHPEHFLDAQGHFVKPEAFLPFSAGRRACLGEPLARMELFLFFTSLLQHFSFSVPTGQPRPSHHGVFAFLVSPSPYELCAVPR
Procedure: as §1, §2, §3, §4

Wistar rats = experiment: qEEG telemetry recordings; type: in vivo; details: rat
Procedure: These effects were most pronounced between 30 and 120 min post treatment (Figure 11C).
Data are expressed as mean ± SEM and were analyzed by one- and two-way ANOVA followed by Dunnett’s Multiple Comparisons tests (*p < 0.05, **p < 0.01, ***p < 0.001 versus vehicle).
Wistar rats using a telemetry system (Data Sciences International DSI, USA).[20] Telemetric transmitters (F40-EET, Data Sciences International DSI, USA) were implanted intraperitoneally into male Wistar rats. EEG electrodes were placed supradurally above the hippocampus and two more electrodes were implanted into the neck muscle in order to measure the electromyography (EMG) signal required for differentiation between different vigilance states. Telemetric EEG recordings were performed during the light phase in the rats’ home cage environment. EEG activity was sampled at 500 Hz with a hardware filter cutoff of 50 Hz. Data were recorded continuously for 24 h, but only 1 h before compound treatment (baseline), the first 4 h after compound treatment plus an additional hour (+24 h time point) have been analyzed. Effects of treatment with 19d (1, 10 mg/kg, p.o., n = 14, applied 2 h after starting the recording) were determined on motor activity, body temperature, vigilance states and EEG power spectra using the EEG analysis software NeuroScore (Data Sciences International DSI, USA). The rats were tested in a crossover study design with a two-day washout period between two treatments.[20]

3A4 = 3A4 (Homo sapiens, UniProt P08684); experiment: inhibition of cytochrome P450 enzymes; type: in vitro ADME; design: 0.1 mg/mL human liver microsomes (HLM) and Substrate Mix; from tissue; host or cells: human liver microsomes; details: human liver microsomes; read-out: CYP450 3A4 inhibition
Sequence of 3A4 (P08684 whole entry): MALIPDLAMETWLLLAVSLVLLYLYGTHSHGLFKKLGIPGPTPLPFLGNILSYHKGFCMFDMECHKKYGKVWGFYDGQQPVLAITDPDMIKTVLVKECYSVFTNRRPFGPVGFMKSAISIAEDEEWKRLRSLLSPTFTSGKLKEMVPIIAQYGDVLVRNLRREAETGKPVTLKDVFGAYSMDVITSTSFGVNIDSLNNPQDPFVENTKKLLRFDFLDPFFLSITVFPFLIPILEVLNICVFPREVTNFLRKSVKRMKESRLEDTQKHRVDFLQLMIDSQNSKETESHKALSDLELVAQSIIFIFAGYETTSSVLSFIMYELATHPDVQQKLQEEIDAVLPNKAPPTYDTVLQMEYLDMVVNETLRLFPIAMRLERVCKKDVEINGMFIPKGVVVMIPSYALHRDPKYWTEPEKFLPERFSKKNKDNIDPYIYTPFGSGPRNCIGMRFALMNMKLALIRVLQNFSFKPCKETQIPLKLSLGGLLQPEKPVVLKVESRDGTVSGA
Procedure: as §1
A reaction mixture of 100 mM Kpi, pH 7.4, 0.1 mg/mL human liver microsomes (HLM) and Substrate Mix is prepared and aliquoted into a 96-deepwell block. Test compound and positive control (in duplicate) were then added such that the final concentration of test compound ranged from 0.1–30 μM. […]
Samples were analyzed via electrospray ionization (ESI) on an AB Sciex API-4000 (Foster City, CA) triple-quadrupole instrument that was coupled with Shimadzu LC-10AD pumps (Columbia, MD) and a Leap Technologies CTC PAL autosampler (Carrboro, NC). […]
as §4

For `Cn1nc(-c2ccnn2C)cc1CNC(=O)c1cc(-c2ccco2)ccc1Cl` [Compound 19d, 2-Chloro-N-((1,2′-dimethyl-1H,2’H-[3,3′-bipyrazol]-5-yl)methyl)-5-(furan-2-yl)benzamide], the IC50 (1A2) was 17 µM, the IC50 (2C9) was 6.4 µM and the IC50 (2D6) was 28 µM. For the same compound, the body temperature (Wistar rats; 10 mg/kg p.o.) was “no measurable changes”, the EEG power spectra (Wistar rats; 10 mg/kg p.o., 60 to 240 min post treatment) was “consistent reduction of delta, alpha and beta power” and the motor activity (Wistar rats; 10 mg/kg p.o., maximum within first 120 min) was “significantly increased”. For the same compound, the “time spent in NREM and REM sleep” value (Wistar rats; higher dose (10 mg/kg p.o.)) was “reduction”, the “time spent in active and quiet wake states” value (Wistar rats; higher dose (10 mg/kg p.o.)) was “significant increase” and the IC50 (3A4) was 22 µM.
